Data reported in patent US20260242478A1, “ANTIBODIES FOR TARGETING PSMA AND CD28 AND USES THEREOF” (Janux Therapeutics, Inc., priority 2023, published 2026).
Where no end group is shown, it is not given here.

tested on: PSMA Fab; assay: Phage binding ELISA, PSMA Fab, with or without PSMA antigen (peptide-179 and peptide-180 libraries); conditions: peptide-180 library clonal phage; background (no Fab)
Method: (§1) Once the phage optimization libraries were completed, phage libraries were bio-panned using PSMA Fab loaded beads. Multiple rounds of panning were performed where bacteriophage was allowed to bind to PSMA Fab loaded beads. washed. eluted, and amplified. After panning, phage infected bacteria were plated out and colonies picked into 96 well blocks. Clonal phage was then amplified and separated from bacterial cells via centrifugation. Phage containing supemnatants were tested in binding ELISAs against PSMA Fab coated plates in the presence or absence of saturating concentrations of PSMA antigen. Phage able to bind PSMA Fab were selected for sequence analysis if the binding signal was reduced in the presence of PSMA.
Clonal phage were harvested as crude supernatants and screened via standard ELISAs. Briefly, biotinylated PSMA Fab was captured on neutravidin coated plates. Prior to the addition of clonal phage. wells were incubated with blocking buffer and PSMA antigen or blocking buffer alone. Without washing or aspirating, clonal phage supernatants were then added to the wells and incubated for a short time. Wells were then washed followed by detection of bound phage using a horse radish conjugated anti-M13 antibody. Clonal phage of interest were then sent for sequence analysis.
as §1, with “beads, washed,” for “beads. washed.”, “supernatants” for “supemnatants”

Chain of PSMA Fab (as listed by the source): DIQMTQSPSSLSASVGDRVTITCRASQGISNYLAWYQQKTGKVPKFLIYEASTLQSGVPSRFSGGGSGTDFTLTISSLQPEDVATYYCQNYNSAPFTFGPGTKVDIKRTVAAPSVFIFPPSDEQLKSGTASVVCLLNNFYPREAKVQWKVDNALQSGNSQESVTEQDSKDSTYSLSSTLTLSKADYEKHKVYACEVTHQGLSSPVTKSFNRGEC
Chain of PSMA Fab (as listed by the source): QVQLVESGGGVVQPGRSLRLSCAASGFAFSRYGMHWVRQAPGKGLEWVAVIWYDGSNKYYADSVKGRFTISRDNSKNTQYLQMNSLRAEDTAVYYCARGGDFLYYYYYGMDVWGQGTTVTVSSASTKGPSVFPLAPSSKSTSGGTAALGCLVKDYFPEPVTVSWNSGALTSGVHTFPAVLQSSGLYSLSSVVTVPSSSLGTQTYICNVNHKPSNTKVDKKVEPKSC

Row | Substance | Phage binding ELISA Background signal
1 | Phage-2849 (VFPICKPSWMCVGM; not fully specified; cysteine pairing not given here) | 0.0918
2 | Phage-2836 (DWKLCKPTWMCESL; not fully specified; cysteine pairing not given here) | 0.0582
3 | Phage-2791 (WEKWCTPSWMCSGI) | 0.0564
4 | Phage-2859 (WEFVCKPEWMCTGF; not fully specified; cysteine pairing not given here) | 0.0551
5 | Phage-2795 (FEKWCTPQWMCNSM) | 0.0569
6 | Phage-2803 (VKHVCMPEWMCYWS) | 0.0652
7 | Phage-2793 (VTNWCTPPWMCEML) | 0.0676
8 | Phage-2864 (IETWCVPRWMCEGF) | 0.0693
9 | Phage-2869 (WPQLCVPMWMCAGL) | 0.1456
10 | Phage-2862 (TGAYCVPQWMCSGF; not fully specified; cysteine pairing not given here) | 0.0638
11 | Phage-2863 (FNVMCRPAWMCDFL; not fully specified; cysteine pairing not given here) | 0.1545
12 | Phage-2818 (SVHMCKPPWMCQSM) | 0.0587
13 | Phage-2842 (PEVMCRPVWMCLGF; not fully specified; cysteine pairing not given here) | 0.0609
14 | Phage-2800 (DYKWCTPPWMCDSR) | 0.0795
15 | Phage-2806 (GATWCTPTWMCTGF) | 0.0609
16 | Phage-2860 (EWILCKPAWMCDGL; not fully specified; cysteine pairing not given here) | 0.051
17 | Phage-2852 (VMPLCKPAWMCGGF; not fully specified; cysteine pairing not given here) | 0.0869
18 | Phage-2811 (VPKWCTPSWMCEFT) | 0.0593
19 | Phage-2851 (DMRLCVPEWMCLGL; not fully specified; cysteine pairing not given here) | 0.0889
20 | Phage-2857 (LERACVPSWMCTGF; not fully specified; cysteine pairing not given here) | 0.0649
21 | Phage-2815 (IDKWCVPAWMCSPA) | 0.0608
22 | Phage-2789 (VGKWCTPEWMCSGF) | 0.058
23 | Phage-2817 (EAKWCTPPWMCSLV) | 0.0615

Row | Substance | Phage binding ELISA Background signal
24 | Phage-2799 (ESKWCVPTWMCAEN) | 0.0516
25 | Phage-2790 (VMKWCTPSWMCAEA) | 0.067
26 | Phage-2808 (MEKWCTPRWMCVGM) | 0.0767
27 | Phage-2855 (WEMKCIPEWMCRGF; cysteine pairing not given here; also: large carriers left off) | 0.0794
28 | Phage-2788 (SVKWCTPSWMCTEW) | 0.0817
29 | Phage-2798 (HFKWCIPPWMCLEI) | 0.0798
30 | Phage-2787 (LWKSCTPEWMCAEW) | 0.0888
31 | Phage-2843 (MLPICKPDWMCAGF; not fully specified; cysteine pairing not given here) | 0.0724
32 | Phage-2792 (TQHWCTPIWMCEGL) | 0.0865
33 | Phage-2839 (DSHWCMPVWMCMGL; not fully specified; cysteine pairing not given here) | 0.0737
34 | Phage-2801 (SDNWCKPEWMCVGH) | 0.0738
35 | Phage-2812 (VGPWCIPDWMCDVV) | 0.0572
36 | Phage-2835 (VAKLCTPAWMCSAM; not fully specified; cysteine pairing not given here) | 0.0643
37 | Phage-2809 (VTKLCIPEWMCVIQ) | 0.0543
38 | Phage-2853 (MLPLCVPAWMCSGF; not fully specified; cysteine pairing not given here) | 0.061
39 | Phage-2814 (PMKWCTPPWMCSYS) | 0.0793
40 | Phage-2794 (TEKWCIPQWMCVRT) | 0.056
41 | Phage-2844 (VVAMCKPAWMCAGL; not fully specified; cysteine pairing not given here) | 0.0591
42 | Phage-2797 (ERIWCTPKWMCETF) | 0.0696
43 | Phage-2816 (GDKWCKPSWMCDFF) | 0.0602
44 | Phage-2847 (WMPRCVPEWMCAGF; not fully specified; cysteine pairing not given here) | 0.1667
45 | Phage-2810 (MDIWCKPRWMCEEY) | 0.0644

tested on: anti-CD28 scFv; assay: Panning ELISA of clonal phage, anti-CD28 scFv, with or without CD28 soluble protein (Peptide-9 library); format: binding; conditions: Peptide-9 library, background (no anti-CD28 scFv)
Method: Clonal phage were harvested as crude supernatants and screened via standard enzyme linked immunosorbent assays (ELISAs). […] Prior to the addition of clonal phage, wells were incubated with blocking buffer and CD28 soluble protein or blocking buffer alone. Without washing or aspirating, clonal phage supernatants were then added to the wells and incubated for a short time. Wells were then washed followed by detection of bound phage using a horse radish peroxidase conjugated anti-M13 antibody. Clonal phage of interest were then sent for sequence analysis.

Chain of anti-CD28 scFv (as listed by the source): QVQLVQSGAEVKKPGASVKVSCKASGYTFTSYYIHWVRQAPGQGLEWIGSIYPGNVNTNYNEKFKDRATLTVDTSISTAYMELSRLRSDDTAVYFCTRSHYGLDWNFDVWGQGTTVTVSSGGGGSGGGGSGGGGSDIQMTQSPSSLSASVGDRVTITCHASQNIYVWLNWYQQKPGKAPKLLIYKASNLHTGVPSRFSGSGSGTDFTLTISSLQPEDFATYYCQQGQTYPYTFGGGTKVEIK

Row | Substance | Background signal
46 | Phage-61 (MVSCPTTMWNRCFN; left off: large carriers) | 0.079
47 | Phage-417 (IYWCPTAMWNRCSA) | 0.086
48 | Phage-133 (MDWCPRFLWDECFF) | 0.064
49 | Phage-57 (MDWCPRHRWVDCFY; left off: large carriers) | 0.073
50 | Phage-44 (MDWCPIALWAECFN; not fully specified; cysteine pairing not given here) | 0.111
51 | Phage-56 (MHWCPMDQWSNCFN; left off: large carriers) | 0.062
52 | Phage-434 (IVWCPTTQWNRCAT) | 0.113
53 | Phage-131 (MDWCPRSLWIYCFN) | 0.113
54 | Phage-140 (MDWCPMDLWDVCFN) | 0.090
55 | Phage-403 (MSWCPWDMWNECFA) | 0.069

same assay, conditions: background (no anti-CD28 scFv)

Row | Substance | Background signal
56 | Phage-318 (MDWCPMFLWDECFN) | 0.132
57 | Phage-328 (MDWCPRALWDHCFN) | 0.323
58 | Phage-306 (MDWCPRHLWNECFA) | 0.068
59 | Phage-387 (MDWCPRHLWLECFN) | 0.064
60 | Phage-323 (MDWCPTYLWNVCFA) | 0.085
61 | Phage-316 (MDWCPRSLWNYCFA) | 0.067
62 | Phage-301 (MDWCPRYLWHECFF) | 0.082
63 | Phage-313 (MDWCPRSLWNYCFN) | 0.076
64 | Phage-331 (MDWCPRHLWDECFY) | 0.098
65 | Phage-339 (MDWCPRTLWDQCFF) | 0.088
66 | Phage-288 (MDWCPIALWDFCFA) | 0.073
67 | Phage-280 (MDWCPRYLWDYCFA) | 0.073
68 | Phage-352 (MDWCPIHLWYECFN) | 0.080
69 | Phage-369 (MHWCPRDLWYECFA) | 0.072
70 | Phage-269 (DSFCTWSAWQECGR; not fully specified; cysteine pairing not given here) | 0.072
71 | Phage-333 (MDWCPTDLWHECFA) | 0.078
72 | Phage-274 (WVSCLRHHWLECFH; not fully specified; cysteine pairing not given here) | 0.781
73 | Phage-273 (IDWCPTAGWTYCWF; not fully specified; cysteine pairing not given here) | 0.071

same assay, conditions: binding to anti-CD28 scFv in presence of CD28 soluble protein

Row | Substance | CD28 scFv signal in presence of CD28
74 | Phage-273 (IDWCPTAGWTYCWF; not fully specified; cysteine pairing not given here) | 0.075
